Source: paper PMC6211832, “Screening of candidate substrates and coupling ions of transporters by thermostability shift assays” (eLife, 2018)

How the values were obtained:
GalP [1] = biological target: T1, GalP (Escherichia coli, UniProt P0AEP1); assay: CPM thermostability shift assay; type: binding; conditions: 50 mM compound, dodecyl-maltoside
T1 construct: full length, C-terminal His6; plasmid pGP1 in E. coli JM1100, purified in dodecyl-maltoside

[2] = biological target: T2, mitochondrial ADP/ATP carrier (AAC) (Thermothelomyces thermophilus, UniProt G2QNH0); assay: CPM thermostability shift assay; type: binding; conditions: 2.5 mM compound, pH 8.0, 100 mM NaCl, dodecyl-maltoside, tetraoleoyl cardiolipin
T2 construct: gene MYCTH_2316753; N-terminal His8 tag, TSED linker and Factor Xa site; expressed in S. cerevisiae WB.12 mitochondria, purified in dodecyl-maltoside
From the text: CPM thermostability shift assay on mitochondrial ADP/ATP carrier (AAC) | In the presence of ATP, ADP, and dADP the population was stabilized

Mhp1 = biological target: T3, Mhp1 (Microbacterium maritypicum, UniProt D6R8X8); assay: CPM thermostability shift assay; type: binding; conditions: 2 mM compound, 140 mM NaCl, pH 8.0, dodecyl-maltoside
T3 construct: gene hyuP; full length, C-terminal His6; plasmid pTTQ18, E. coli BL21(DE3), purified in dodecyl-maltoside

GalP [3] = biological target: T1, GalP; assay: CPM thermostability shift assay; type: binding; conditions: 50 mM compound, dodecyl-maltoside; remark: listed apart in the source
[4] = biological target: T4, mitochondrial phosphate carrier of Tetrahymena thermophila (UniProt I7M3J0) (Tetrahymena thermophila, UniProt I7M3J0); assay: CPM thermostability shift assay; type: binding; conditions: 2.5 mM compound, pH 6.0, 100 mM NaCl, tetraoleoyl cardiolipin
T4 construct: gene TTHERM_00535740; N-terminal His8 tag, TSED linker and Factor Xa site; expressed in S. cerevisiae W303-1B mitochondria, purified in lauryl maltose neopentyl glycol

[5] = biological target: T4, mitochondrial phosphate carrier of Tetrahymena thermophila; assay: competition of […]-orthophosphate uptake in proteoliposomes; type: biochemical; conditions: 20 mM external glyoxylate, 20 μM [33P]-orthophosphate, pH 6.5, 20 mM internal compound

T2 sequence (G2QNH0 whole entry): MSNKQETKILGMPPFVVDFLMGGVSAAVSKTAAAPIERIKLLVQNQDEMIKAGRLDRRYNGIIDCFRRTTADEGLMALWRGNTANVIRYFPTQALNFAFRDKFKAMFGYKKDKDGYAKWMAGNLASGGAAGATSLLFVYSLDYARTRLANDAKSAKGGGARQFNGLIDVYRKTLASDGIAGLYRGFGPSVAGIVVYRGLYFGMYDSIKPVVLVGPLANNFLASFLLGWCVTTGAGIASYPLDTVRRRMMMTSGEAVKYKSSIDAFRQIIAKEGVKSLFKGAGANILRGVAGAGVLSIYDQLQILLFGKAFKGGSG
T4 sequence (I7M3J0 entry or part of it): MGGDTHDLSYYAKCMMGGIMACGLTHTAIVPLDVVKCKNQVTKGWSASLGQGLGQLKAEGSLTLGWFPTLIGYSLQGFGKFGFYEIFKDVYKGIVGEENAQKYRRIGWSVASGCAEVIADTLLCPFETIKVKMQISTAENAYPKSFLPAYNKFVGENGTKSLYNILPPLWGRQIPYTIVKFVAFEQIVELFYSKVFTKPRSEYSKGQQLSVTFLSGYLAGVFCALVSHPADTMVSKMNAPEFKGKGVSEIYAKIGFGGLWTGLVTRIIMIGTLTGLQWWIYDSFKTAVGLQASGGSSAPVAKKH
T3 sequence (D6R8X8 whole entry): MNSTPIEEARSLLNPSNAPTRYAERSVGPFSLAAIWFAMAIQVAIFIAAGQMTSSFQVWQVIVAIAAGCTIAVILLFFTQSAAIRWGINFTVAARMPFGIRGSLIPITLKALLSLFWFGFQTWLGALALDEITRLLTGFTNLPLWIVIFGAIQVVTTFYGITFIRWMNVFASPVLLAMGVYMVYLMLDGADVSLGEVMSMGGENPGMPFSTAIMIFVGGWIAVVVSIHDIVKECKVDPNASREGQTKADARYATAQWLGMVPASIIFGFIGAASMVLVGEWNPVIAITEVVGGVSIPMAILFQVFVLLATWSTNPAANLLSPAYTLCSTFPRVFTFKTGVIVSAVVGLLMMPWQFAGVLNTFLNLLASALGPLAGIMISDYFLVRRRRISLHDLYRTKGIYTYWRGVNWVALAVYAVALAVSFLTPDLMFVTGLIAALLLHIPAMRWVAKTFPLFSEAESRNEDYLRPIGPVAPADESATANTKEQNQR
T1 sequence (P0AEP1 whole entry): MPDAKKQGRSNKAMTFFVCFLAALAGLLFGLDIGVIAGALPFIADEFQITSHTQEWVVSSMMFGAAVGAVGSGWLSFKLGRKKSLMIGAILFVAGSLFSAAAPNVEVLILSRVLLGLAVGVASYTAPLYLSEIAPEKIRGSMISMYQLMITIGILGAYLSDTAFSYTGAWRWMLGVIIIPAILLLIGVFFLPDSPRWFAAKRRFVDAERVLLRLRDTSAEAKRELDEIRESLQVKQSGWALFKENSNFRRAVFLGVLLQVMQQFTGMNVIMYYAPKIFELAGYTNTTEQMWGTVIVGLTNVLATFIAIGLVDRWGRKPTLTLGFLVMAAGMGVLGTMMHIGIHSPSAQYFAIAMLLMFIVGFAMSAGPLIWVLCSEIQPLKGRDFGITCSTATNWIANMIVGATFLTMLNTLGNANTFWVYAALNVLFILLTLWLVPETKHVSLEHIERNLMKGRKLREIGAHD

`OC[C@H]1OC(O)C[C@@H](O)[C@@H]1O` (stereo partly drawn) [2-deoxy-D-glucose] was tested, and the dTm (GalP [1]) was “to a lesser extent by D-talose, 2-deoxy-D-glucose, 6-deoxy-D-glucose”.

For `C[C@H]1OC(O)[C@H](O)[C@@H](O)[C@@H]1O` (stereo partly drawn) [6-deoxy-D-glucose], the dTm (GalP [1]) was “to a lesser extent by D-talose, 2-deoxy-D-glucose, 6-deoxy-D-glucose”.

In the case of `Nc1ncnc2c1ncn2[C@@H]1O[C@H](COP(=O)(O)OP(=O)(O)O)[C@@H](O)[C@H]1O` [ADP], the dTm [2] is reported as 6.0 ± 0.5 °C.

`Nc1ncnc2c1ncn2[C@@H]1O[C@H](COP(=O)(O)OP(=O)(O)OP(=O)(O)O)[C@@H](O)[C@H]1O` [ATP] was tested, and the dTm [2] was 7.2 ± 0.2 °C.

`O=C1NC(=O)C(C=CBr)N1` (stereo not drawn) [BVH, 5-bromovinylhydantoin] gave a dTm (Mhp1) of 11.9 ± 1.1 °C.

In the case of `OC[C@H]1OC(O)[C@H](O)[C@@H](O)[C@H]1O` (stereo partly drawn) [D-galactose], the dTm (GalP [3]) is reported as 2.1 ± 0.6 °C.

Compound `OC[C@H]1OC(O)[C@H](O)[C@@H](O)[C@@H]1O` (stereo partly drawn) [D-glucose] has a dTm (GalP [3]) of 4.2 ± 0.5 °C.

With `OC[C@H]1OC(O)[C@@H](O)[C@@H](O)[C@H]1O` (stereo partly drawn) [D-talose] the dTm (GalP [1]) was “to a lesser extent by D-talose, 2-deoxy-D-glucose, 6-deoxy-D-glucose”.

In the case of `O=C1NC(=O)[C@H](Cc2ccccc2)N1` [L-BH, 5-benzyl-L-hydantoin], the dTm (Mhp1) is reported as 13.6 ± 1.2 °C.

Work on `O=C1NC(=O)[C@H](Cc2ccc3ccccc3c2)N1` [L-NMH, 5-(2-naphthylmethyl)-L-hydantoin] yielded a dTm (Mhp1; inhibitor) of 15.6 ± 1.7 °C.

Compound `CC(=O)OP(=O)(O)O` [acetyl-phosphate] has a dTm [4] of 3.2 ± 0.5 °C.

Compound `Nc1ncnc2c1ncn2[C@H]1C[C@H](O)[C@@H](COP(=O)(O)OP(=O)(O)O)O1` [dADP] has a dTm [2] of 1.8 ± 0.2 °C.

With `O=CC(=O)O` [glyoxylate] the dTm [4] was 3.6 ± 0.8 °C and the “inhibition of phosphate uptake” value [5] was “in competition assays glyoxylate abolished uptake”.

`C=C(OP(=O)(O)O)C(=O)O` [phosphoenolpyruvate] showed a dTm [4] of 2.3 ± 0.2 °C.
